From patent US20220372014A1, “NEUROPROTECTIVE COMPOUNDS AND METHODS OF USE THEREOF” (The Johns Hopkins University, priority 2019, published 2022)

How the values were obtained:
[1] = test system: HeLa cells or neuronal cells; assay: Cell death assay of Example 3 (MNNG, alamarBlue; protection against parthanatos, Table 4); assay type: cell-based; conditions: 1 μM test compound, MNNG-induced cell death, alamarBlue
Description: Cell death assay: 200 μl of cells (HeLa cells or neuronal cells) culture (1×10^4 cells/well) were plated into the wells of a sterile 96-well cell culture plate. The cells were incubated for 18 hours at 37° C. The medium was removed and changed with 100 μl/well of 1 μM test compound. Incubate for 1 hours at 37° C. Ten μl of 500 μM MNNG (N-Methyl-N′-nitro-N-nitrosoguanidine) was added to each well. The medium was aspirated well and incubated for 15 min at 37° C. The cells were washed with the fresh medium. The medium was changed with 1 μM of test compound and incubated for 18 hours at 37° C. 10 μl/well of alamarBlue reagent was added directly to the well and incubated for 1 to 4 hours at 37° C. Fluorescence was measured using a fluorescence excitation wavelength of 560 nm and emission at 590 nm. The percentage of cell death was determined as the ratio of live to dead cells compared with the percentage of cell death in control wells to account for cell death attributed to mechanical stimulation of the cultures.

MIF = target: T1, MIF (Homo sapiens, UniProt P14174); assay: Nuclease assay of Example 3 (MIF inhibitory activity, Table 4); assay type: biochemical; design: (%) inhibition of MIF nuclease activity: concentration or dose not given beside the values; conditions: nuclease assay of Example 3
T1 sequence (P14174 1-115): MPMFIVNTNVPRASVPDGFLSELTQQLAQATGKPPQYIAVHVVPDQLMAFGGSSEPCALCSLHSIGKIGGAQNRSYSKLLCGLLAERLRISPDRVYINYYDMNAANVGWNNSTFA
Description: A rapafucin library was synthesized as described in WO2017/136708 and Guo et al. (2018) Nat. Chem. 11:254-63. The hybrid macrocyclic library consisted of 45,000 compounds in pools of 15 individual compounds. The library compounds were screened for MIF inhibitory activity using a nuclease assay as detailed in FIG. 1 and below.
Nuclease assay: Human genomic DNA (200 ng/reaction, Promega), pcDNA (200 ng/reaction) or PS^30 and its related and non-related substrates (1 μM) was incubated with wild type MIF or its variants at a final concentration of 0.25-8 μM as indicated in 10 mM Tris-HCl buffer (pH 7.0) containing 10 mM MgCl2 and 1 mM DTT or specific buffer as indicated, for 1 h (with pcDNA and small DNA substrates) or 4 h (with human genomic DNA) at 37° C. The reaction was terminated with loading buffer containing 10 mM EDTA and incubation on ice. The human genomic DNA samples were immediately separated on a 1.2% pulse field certified agarose in 0.5×TBE buffer with initial switch time of 1.5 s and a final switch time of 3.5 s for 12 h at 6 V/cm. pcDNA samples were determined by 1% agarose gel. Small DNA substrates were separated on 15% or 25% TBE-urea polyacrylamide (PAGE) gel or 20% TBE PAGE gel. Then gel was stained with 0.5 μg/ml Ethidium Bromide (EtBr) followed by electrophoretic transfer to nylon membrane. Then, Biotin-labeled DNA is further detected by chemiluminescence using Chemiluminescent Nucleic Acid Detection Module (Thermo Scientific).
Structure-activity relationship (SAR) analysis was then conducted on the compounds identified as having MIF inhibitory activity. Compounds having the structure of Formula (I) were then synthesized as shown in Example 1 and tested for MIF inhibitory activity using the nuclease assay described herein and neuronal protection via a cell death assay as detailed below.

Compound | (%) inhibition of MIF nuclease activity (MIF) [%] | (%) inhibition of cell death [1] [%]
CCC[C@@H]1NC(=O)[C@H](COC(C)(C)C)N(C)C(=O)[C@@H](Cc2ccc3ccccc3c2)NC(=O)[C@H](C)N(C)C(=O)COc2cccc(c2)[C@@H](CCc2ccc(OC)c(OC)c2)OC(=O)[C@@H]2CCCCN2C(=O)C(=O)C(C)(C)COC(=O)C=CCCN(C)C1=O [compound 19] | 59.9 | 62.4
COCC[C@@H]1NC(=O)[C@H](COC(C)(C)C)N(C)C(=O)[C@H](Cc2ccc3ccccc3c2)NC(=O)[C@H](C)N(C)C(=O)COc2cccc(c2)[C@@H](CCc2ccc(OC)c(OC)c2)OC(=O)[C@@H]2CCCCN2C(=O)C(=O)C(C)(C)COC(=O)C=CCCN(C)C1=O [compound 20] | 42.2 | 60.6
COc1ccc(CC[C@H]2OC(=O)[C@@H]3CCCCN3C(=O)C(=O)C(C)(C)COC(=O)C=CCCN(C)C(=O)[C@H](CC(C)C)NC(=O)[C@H](COC(C)(C)C)N(C)C(=O)[C@H](Cc3ccc4ccccc4c3)NC(=O)[C@H](C)N(C)C(=O)COc3cccc2c3)cc1OC [compound 21] | 57.9 | 61.0
COc1ccc(CC[C@H]2OC(=O)[C@@H]3CCCCN3C(=O)C(=O)C(C)(C)COC(=O)C=CCCN(C)C(=O)[C@@H](CC(C)C)NC(=O)[C@H](COC(C)(C)C)N(C)C(=O)[C@H](Cc3ccc4ccccc4c3)NC(=O)[C@H](C)N(C)C(=O)COc3cccc2c3)cc1OC [compound 22] | 61.8 | 56.9
COc1ccc(CC[C@H]2OC(=O)[C@@H]3CCCCN3C(=O)C(=O)C(C)(C)COC(=O)C=CCCN(C)C(=O)[C@H](Cc3ccccc3)NC(=O)[C@H](COC(C)(C)C)N(C)C(=O)[C@H](Cc3ccc4ccccc4c3)NC(=O)[C@H](C)N(C)C(=O)COc3cccc2c3)cc1OC [compound 23] | 45.7 | 58.7
COc1ccc(CC[C@H]2OC(=O)[C@@H]3CCCCN3C(=O)C(=O)C(C)(C)COC(=O)C=CCCN(C)C(=O)[C@@H](Cc3ccccc3)NC(=O)[C@H](COC(C)(C)C)N(C)C(=O)[C@H](Cc3ccc4ccccc4c3)NC(=O)[C@H](C)N(C)C(=O)COc3cccc2c3)cc1OC [compound 24] | 40.3 | 57.4
COc1ccc(CC[C@H]2OC(=O)[C@@H]3CCCCN3C(=O)C(=O)C(C)(C)COC(=O)C=CCCN(C)C(=O)[C@H](Cc3ccc(F)cc3)NC(=O)[C@H](COC(C)(C)C)N(C)C(=O)[C@H](Cc3ccc4ccccc4c3)NC(=O)[C@H](C)N(C)C(=O)COc3cccc2c3)cc1OC [compound 25] | 25.8 | 59.1
COc1ccc(CC[C@H]2OC(=O)[C@@H]3CCCCN3C(=O)C(=O)C(C)(C)COC(=O)C=CCCN(C)C(=O)[C@@H]3CCCN3C(=O)[C@H](COC(C)(C)C)N(C)C(=O)[C@H](Cc3ccc4ccccc4c3)NC(=O)[C@H](C)N(C)C(=O)COc3cccc2c3)cc1OC [compound 26] | 64.9 | 71.2
COc1ccc(CC[C@H]2OC(=O)[C@@H]3CCCCN3C(=O)C(=O)C(C)(C)COC(=O)C=CCCN(C)C(=O)[C@H](CC3CCCCC3)NC(=O)[C@H](COC(C)(C)C)N(C)C(=O)[C@@H](Cc3ccc4ccccc4c3)NC(=O)[C@H](C)N(C)C(=O)COc3cccc2c3)cc1OC [compound 27] | 78.4 | 72.1
COc1ccc(CC[C@H]2OC(=O)[C@@H]3CCCCN3C(=O)C(=O)C(C)(C)COC(=O)C=CCCN(C)C(=O)CNC(=O)[C@H](COC(C)(C)C)N(C)C(=O)C(c3ccccc3)NC(=O)CN(C)C(=O)COc3cccc2c3)cc1OC (stereo partly shown) [compound 31] | 22.9 | 52.3
COc1ccc(CC[C@H]2OC(=O)[C@@H]3CCCCN3C(=O)C(=O)C(C)(C)COC(=O)C=CCCN(C)C(=O)[C@H](C)NC(=O)[C@H](COC(C)(C)C)N(C)C(=O)C(c3ccccc3)NC(=O)CN(C)C(=O)COc3cccc2c3)cc1OC (stereo partly shown) [compound 32] | 11.2 | 54.3
COc1ccc(CC[C@H]2OC(=O)[C@@H]3CCCCN3C(=O)C(=O)C(C)(C)COC(=O)C=CCCN(C)C(=O)[C@@H](C)NC(=O)[C@H](COC(C)(C)C)N(C)C(=O)C(c3ccccc3)NC(=O)CN(C)C(=O)COc3cccc2c3)cc1OC (stereo partly shown) [compound 33] | 12.6 | 53.4

Further lines, with some results ahead:

(%) inhibition of MIF nuclease activity (MIF) [%] | Compound | (%) inhibition of cell death [1] [%]
66.6 | COc1ccc(CC[C@H]2OC(=O)[C@@H]3CCCCN3C(=O)C(=O)C(C)(C)COC(=O)C=CCCN(C)C(=O)[C@H](Cc3ccc4ccccc4c3)NC(=O)[C@H](COC(C)(C)C)N(C)C(=O)[C@H](Cc3ccc4ccccc4c3)NC(=O)[C@H](C)N(C)C(=O)COc3cccc2c3)cc1OC [compound 28] | 69.6
12.4 | COc1ccc(CC[C@H]2OC(=O)[C@@H]3CCCCN3C(=O)C(=O)C(C)(C)COC(=O)C=CCCN(C)C(=O)[C@H](C(C)C)NC(=O)[C@H](COC(C)(C)C)N(C)C(=O)[C@H](Cc3ccc4ccccc4c3)NC(=O)[C@H](C)N(C)C(=O)COc3cccc2c3)cc1OC [compound 29] | 57.8
18.6 | COc1ccc(CC[C@H]2OC(=O)[C@@H]3CCCCN3C(=O)C(=O)C(C)(C)COC(=O)C=CCCN(C)C(=O)C(c3ccccc3)NC(=O)[C@H](COC(C)(C)C)N(C)C(=O)[C@H](Cc3ccc4ccccc4c3)NC(=O)[C@H](C)N(C)C(=O)COc3cccc2c3)cc1OC (stereo partly shown) [compound 30] | 51.5
24.2 | CCC[C@@H]1NC(=O)[C@H](COC(C)(C)C)N(C)C(=O)C(c2ccccc2)NC(=O)CN(C)C(=O)COc2cccc(c2)[C@@H](CCc2ccc(OC)c(OC)c2)OC(=O)[C@@H]2CCCCN2C(=O)C(=O)C(C)(C)COC(=O)C=CCCN(C)C1=O (stereo partly shown) [compound 34] | 58.4
21.5 | COCC[C@@H]1NC(=O)[C@H](COC(C)(C)C)N(C)C(=O)C(c2ccccc2)NC(=O)CN(C)C(=O)COc2cccc(c2)[C@@H](CCc2ccc(OC)c(OC)c2)OC(=O)[C@@H]2CCCCN2C(=O)C(=O)C(C)(C)COC(=O)C=CCCN(C)C1=O (stereo partly shown) [compound 35] | 56.3
18.5 | COc1ccc(CC[C@H]2OC(=O)[C@@H]3CCCCN3C(=O)C(=O)C(C)(C)COC(=O)C=CCCN(C)C(=O)[C@H](CC(C)C)NC(=O)[C@H](COC(C)(C)C)N(C)C(=O)C(c3ccccc3)NC(=O)CN(C)C(=O)COc3cccc2c3)cc1OC (stereo partly shown) [compound 36] | 51.0
18.0 | COc1ccc(CC[C@H]2OC(=O)[C@@H]3CCCCN3C(=O)C(=O)C(C)(C)COC(=O)C=CCCN(C)C(=O)[C@@H](CC(C)C)NC(=O)[C@H](COC(C)(C)C)N(C)C(=O)C(c3ccccc3)NC(=O)CN(C)C(=O)COc3cccc2c3)cc1OC (stereo partly shown) [compound 37] | 59.6
31.1 | COc1ccc(CC[C@H]2OC(=O)[C@@H]3CCCCN3C(=O)C(=O)C(C)(C)COC(=O)C=CCCN(C)C(=O)[C@@H](Cc3ccccc3)NC(=O)[C@H](COC(C)(C)C)N(C)C(=O)C(c3ccccc3)NC(=O)CN(C)C(=O)COc3cccc2c3)cc1OC (stereo partly shown) [compound 39] | 57.5
